This test has as its target CFTR (Homo sapiens, UniProt P13569). Nature of the test: Membrane Potential Dye, Enteroid Assay B. Type of test: cell-based. As to conditions: for EC50: read-out: Ent. B EC50. The protocol:
Base medium (ADF+++) consisted of Advanced DMEM/Ham's F12, 2 mM Glutamax, 10 mM HEPES, 1 µg/mL penicillin/streptomycin.
Intestinal enteroid maintenance medium (IEMM) consisted of ADF+++, 1× B27 supplement, 1× N2 supplement, 1.25 mM N-acetyl cysteine, 10 mM Nicotinamide, 50 ng/mL hEGF, 10 nM Gastrin, 1 pg/mL hR-spondin-1, 100 ng/mL hNoggin, TGF-b type 1 inhibitor A-83-01, 100 μg/mL Primocin, […] P38 MAPK inhibitor SB202190.
Bath 1 Buffer consisted of 1 mM MgCl2, 160 mM NaCl, 4.5 mM KCl, 10 mM HEPES, 10 mM Glucose, 2 mM CaCl2).
Chloride Free Buffer consisted of 1 mM Magnesium Gluconate, 2 mM Calcium Gluconate, 4.5 mM Potassium Gluconate, 160 mM Sodium Gluconate, 10 mM HEPES, 10 mM Glucose.
Bath1 Dye Solution consisted of Bath 1 Buffer, 0.04% Pluronic F127, […] Methyl Oxonol, 30 μM CaCCinh-A01, 30 μM Chicago Sky Blue.
Chloride Free Dye Solution consisted of Chloride Free Buffer, 0.04% Pluronic F127, 20 μM Methyl Oxonol, 30 μM CaCCinh-A01, 30 μM Chicago Sky Blue.
Chloride Free Dye Stimulation Solution consisted of Chloride Free Dye Solution, 10 μM forskolin, 100 μM IBMX, and 300 nM Compound III.
Human intestinal epithelial enteroid cells were obtained from the Hubrecht Institute for Developmental Biology and Stem Cell Research, Utrecht, The Netherlands and expanded in T-Flasks as previously described (Dekkers J F, Wiegerinck C L, de Jonge H R, Bronsveld I, Janssens H M, de Winter-de Groot K M, Brandsma A M, de Jong N W M, Bijvelds M J C, Scholte B J, Nieuwenhuis E E S, van den Brink S, Clevers H, van der Ent C K, Middendorp S and M Beekman J M. A functional CFTR assay using primary cystic fibrosis intestinal organoids. Nat Med. 2013 July; 19(7):939-45.).
Cells were recovered in cell recovery solution, collected by centrifugation at 650 rpm for 5 min at 4° C., resuspended in TryPLE and incubated for 5 min at 37° C. Cells were then collected by centrifugation at 650 rpm for 5 min at 4° C. and resuspended in IEMM containing 10 μM ROCK inhibitor (RI). The cell suspension was passed through a 40 μm cell strainer and resuspended at 1×10^6 cells/mL in IEMM containing 10 μM RI. Cells were seeded at 5000 cells/well into multi-well plates and incubated for overnight at 37° C., 95% humidity and 5% CO2 prior to assay.
Enteroid cells were incubated with test compound in IEMM for 18-24 hours at 37° C., 95% humidity and 5% CO2. […] Briefly, cells were washed 5 times in Bath 1 Buffer. Bath 1 Dye Solution was added and the cells were incubated for 25 min at room temperature. Following dye incubation, cells were washed 3 times in Chloride Free Dye Solution. Chloride transport was initiated by addition of Chloride Free Dye Stimulation Solution and the fluorescence signal was read for 15 min. […] Chloride transport was then expressed as a percentage of the chloride transport following treatment with 1 μM (14S)-8-[3-(2-{Dispiro[2.0.2.1]heptan-7-yl}ethoxy)-1H-pyrazol-1-yl]-12,12-dimethyl-2λ^6-thia-3,9,11,18,23-pentaazatetracyclo[17.3.1.111,14.05,10]tetracosa-1(22),5,7,9,19(23),20-hexaene-2,2,4-trione, 3 μM (R)-1-(2,2-difluorobenzo[d][1,3]dioxol-5-yl)-N-(1-(2,3-dihydroxypropyl)-6-fluoro-2-(1-hydroxy-2-methylpropan-2-yl)-1H-indol-5-yl)cyclopropanecarboxamide and 300 nM acute N-[2,4-bis(1,1-dimethylethyl)-5-hydroxyphenyl]-1,4-dihydro-4-oxoquinoline-3-carboxamide triple combination control (% Activity).

These results are taken from US20230374038A1, “MODULATORS OF CYSTIC FIBROSIS TRANSMEMBRANE CONDUCTANCE REGULATOR” (VERTEX PHARMACEUTICALS INCORPORATED, priority 2020, published 2023).

Each structure is given as a SMILES string.

CFTR, sequence (P13569 with tags, fused parts or gaps DEL508-508): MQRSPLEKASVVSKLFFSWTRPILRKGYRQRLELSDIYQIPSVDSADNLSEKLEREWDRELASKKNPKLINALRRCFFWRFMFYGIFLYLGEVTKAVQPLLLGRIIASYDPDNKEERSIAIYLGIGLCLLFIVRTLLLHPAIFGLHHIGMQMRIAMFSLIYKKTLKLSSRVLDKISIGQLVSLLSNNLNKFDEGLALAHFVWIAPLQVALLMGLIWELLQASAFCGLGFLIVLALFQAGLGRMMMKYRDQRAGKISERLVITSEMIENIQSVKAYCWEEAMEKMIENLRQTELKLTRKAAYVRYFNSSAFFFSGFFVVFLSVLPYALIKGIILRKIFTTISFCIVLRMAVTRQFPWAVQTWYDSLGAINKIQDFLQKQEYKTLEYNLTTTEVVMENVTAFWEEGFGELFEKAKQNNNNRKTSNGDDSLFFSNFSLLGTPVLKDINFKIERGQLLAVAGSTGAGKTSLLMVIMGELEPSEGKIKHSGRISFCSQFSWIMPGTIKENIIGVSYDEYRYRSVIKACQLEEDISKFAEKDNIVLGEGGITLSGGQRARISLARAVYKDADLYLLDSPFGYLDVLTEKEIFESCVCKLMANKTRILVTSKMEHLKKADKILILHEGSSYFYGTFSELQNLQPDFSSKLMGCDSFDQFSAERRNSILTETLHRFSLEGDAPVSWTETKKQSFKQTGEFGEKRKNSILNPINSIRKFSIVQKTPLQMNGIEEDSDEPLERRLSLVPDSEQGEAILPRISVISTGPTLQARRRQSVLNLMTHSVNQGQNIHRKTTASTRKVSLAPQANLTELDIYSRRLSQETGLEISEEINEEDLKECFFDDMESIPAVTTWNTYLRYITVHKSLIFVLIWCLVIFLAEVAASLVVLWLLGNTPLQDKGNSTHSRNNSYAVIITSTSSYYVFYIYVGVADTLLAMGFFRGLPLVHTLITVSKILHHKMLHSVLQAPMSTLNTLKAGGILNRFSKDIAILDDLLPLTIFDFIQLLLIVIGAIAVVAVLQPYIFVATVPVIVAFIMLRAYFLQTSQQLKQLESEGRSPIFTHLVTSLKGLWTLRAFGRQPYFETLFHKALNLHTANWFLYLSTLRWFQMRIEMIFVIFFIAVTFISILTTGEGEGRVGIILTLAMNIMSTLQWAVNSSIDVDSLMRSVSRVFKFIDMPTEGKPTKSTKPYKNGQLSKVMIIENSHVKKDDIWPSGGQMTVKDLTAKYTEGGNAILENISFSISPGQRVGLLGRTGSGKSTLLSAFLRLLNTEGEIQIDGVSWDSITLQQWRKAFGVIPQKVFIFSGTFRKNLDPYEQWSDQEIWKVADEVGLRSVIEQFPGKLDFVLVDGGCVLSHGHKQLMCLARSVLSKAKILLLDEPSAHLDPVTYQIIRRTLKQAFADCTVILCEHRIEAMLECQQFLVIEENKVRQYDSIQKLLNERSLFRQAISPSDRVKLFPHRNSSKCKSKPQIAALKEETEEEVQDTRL

By EC50 is commonly meant the concentration at which the effect is half-maximal. `COC1CC(N2C(=O)c3cccc(c3)S(=O)(=O)Nc3nc(c(C)c(-c4c(C)cccc4C)n3)OC[C@H]2CC2(C(F)(F)F)CC2)C1` (some centres unmarked) [Compound 99]: the “Ent. B Max Activity” value is “+++ (+++ is >60%)” and the half-maximal effective concentration (EC50) was less than 1000 nM.
The corresponding values for `Cc1cccc(C)c1-c1nc2nc(c1C)OC[C@@H](CC(C)C)N([C@H]1C[C@@H](OC(C)C)C1)C(=O)c1cccc(c1)S(=O)(=O)N2` (single isomer, unassigned) [Compound 48] are “+++ (+++ is >60%)” and less than 1000 nM.
On the same counts, the results for `CCc1c2nc(nc1-c1c(C)cccc1C)NS(=O)(=O)c1cccc(c1)C(=O)N[C@@H]1CN(C3CC4(CCCCC4)C3)C[C@H]1O2` [Compound 115] are “+++ (+++ is >60%)” and less than 1000 nM.
As to `COCCN1CCC2(CC1)CC(N1C(=O)c3cccc(c3)S(=O)(=O)Nc3nc(c(OC)c(-c4c(C)cccc4C)n3)OC[C@H]1CC(C)C)C2` [Compound 166, (11R)-6-(2,6-dimethylphenyl)-11-isobutyl-7-methoxy-12-[7-(2-methoxyethyl)-7-azaspiro[3.5]nonan-2-yl]-2,2-dioxo-9-oxa-2λ^6-thia-3,5,12,19-tetrazatricyclo[12.3.1.14,8]nonadeca-1(18),4(19),5,7,14,16-hexaen-13-one], the “Ent. B Max Activity” value is recorded as “+++ (+++ is >60%)” and the EC50 was less than 1000 nM.
Turning to `COC1CC(N2C(=O)c3cccc(c3)S(=O)(=O)Nc3nc(c(C)c(-c4c(C)cccc4C)n3)OC[C@H]2CC(C)(C)C)C1` (some centres unmarked) [Compound 84], the “Ent. B Max Activity” value is listed as “+++ (+++ is >60%)” and the concentration for a half-maximal effect (EC50) was less than 1000 nM.
On the same counts, the results for `Cc1cccc(C)c1-c1nc2nc(c1C)OC[C@@H](CC(C)(C)C)N(C1CC3(CCN(C(=O)OC(C)(C)C)CC3)C1)C(=O)c1cccc(c1)S(=O)(=O)N2` [Compound 82] are “+++ (+++ is >60%)” and less than 1000 nM.
On the same counts, the results for `COc1ccc(-c2c3nc(nc2-c2c(C)cccc2C)NS(=O)(=O)c2cccc(c2)C(=O)NC[C@@H](C)O3)cc1` [Compound 130] are “+++ (+++ is >60%)” and less than 1000 nM.
On the same counts, the results for `Cc1cccc(C)c1-c1nc2nc(c1C)OC[C@@H](CC(C)C)N(C1CC3(CC3)C1)C(=O)c1cccc(c1)S(=O)(=O)N2` [Compound 75] are “+++ (+++ is >60%)” and less than 1000 nM.
On to `Cc1cccc(C)c1-c1nc2nc(c1C)OC[C@@H](CC(C)(C)C)N(C1CC3(CC(N)C3)C1)C(=O)c1cccc(c1)S(=O)(=O)N2` (single isomer, unassigned) [Compound 63], for which the “Ent. B Max Activity” value is given as “+++ (+++ is >60%)” and the concentration giving a half-maximal response (EC50) was less than 1000 nM.
Take `Cc1cccc(C)c1-c1nc2nc(c1-c1cccnc1)O[C@H](C)CNC(=O)c1cccc(c1)S(=O)(=O)N2` [Compound 133]: the “Ent. B Max Activity” value was “+ (+ is <30%)”.
Turning to `[H][C@]1(N2C(=O)c3cccc(c3)S(=O)(=O)Nc3nc(c(C)c(-c4c(C)cccc4C)n3)OC[C@H]2CC(C)(C)C)C[C@@]2(C[C@H](C(C)(C)O)C2)C1` (single isomer, unassigned) [Compound 58], the “Ent. B Max Activity” value is on record as “+++ (+++ is >60%)” and the concentration giving a half-maximal response (EC50) was less than 1000 nM.
On to `Cc1cccc(C)c1-c1nc2nc(c1-c1ccccc1)OC[C@@H](C)NC(=O)c1cccc(c1)S(=O)(=O)N2` [Compound 142], for which the “Ent. B Max Activity” value is listed as “++ (++ is 30-60%)” and the EC50 was less than 1000 nM.
Consider `Cc1cccc(C)c1-c1nc2nc(c1C)OC[C@@H](CC(C)(C)O)N(CCCC(C)(C)O)C(=O)c1cccc(c1)S(=O)(=O)N2` [Compound 110], for which the “Ent. B Max Activity” value is on record as “+ (+ is <30%)”.
Turning to `Cc1cccc(C)c1-c1nc2nc(c1C)OCCCN(C1CC3(CC(NC(=O)OC(C)(C)C)C3)C1)C(=O)c1cccc(c1)S(=O)(=O)N2` (centres unmarked) [Compound 38], the “Ent. B Max Activity” value is “+ (+ is <30%)” and the EC50 was less than 1000 nM.
For `Cc1cccc(C)c1-c1nc2nc(c1F)OC[C@@H](CC(C)C)N(C1CC3(CCN(C(=O)OC(C)(C)C)CC3)C1)C(=O)c1cccc(c1)S(=O)(=O)N2` [Compound 187], the “Ent. B Max Activity” value is given as “+++ (+++ is >60%)” and the half-maximal effective concentration (EC50) was less than 1000 nM.
In the case of `Cc1cccc(C)c1-c1nc2nc(c1C1CCOCC1)O[C@H](C)CNC(=O)c1cccc(c1)S(=O)(=O)N2` [Compound 151], the “Ent. B Max Activity” value was “++ (++ is 30-60%)”.
On to `Cc1cccc(C)c1-c1nc2nc(c1C)OC[C@@H](CCC(C)(C)O)NC(=O)c1cccc(c1)S(=O)(=O)N2` [Compound 107, (11R)-6-(2,6-Dimethylphenyl)-11-(3-hydroxy-3-methyl-butyl)-7-methyl-2,2-dioxo-9-oxa-2λ^6-thia-3,5,12,19-tetrazatricyclo[12.3.1.14,8]nonadeca-1(18),4(19),5,7,14,16-hexaen-13-one], for which the “Ent. B Max Activity” value is “+ (+ is <30%)” and the EC50 is 3000 to 30000 nM.
On the same counts, the results for `Cc1cccc(C)c1-c1nc2nc(c1C)OC[C@@H](CC1(C(F)(F)F)CC1)N(C1CC3(CC(N(C)C)C3)C1)C(=O)c1cccc(c1)S(=O)(=O)N2` (stereo in doubt) [Compound 90] are “+++ (+++ is >60%)” and less than 1000 nM.
On the same counts, the results for `Cc1cccc(C)c1-c1nc2nc(c1C)OC[C@@H](CC(C)C)N(C1CC3(CCN(C)CC3)C1)C(=O)c1cccc(c1)S(=O)(=O)N2` [Compound 74] are “+++ (+++ is >60%)” and less than 1000 nM.
For `COc1cccc(-c2c3nc(nc2-c2c(C)cccc2C)NS(=O)(=O)c2cccc(c2)C(=O)NC[C@@H](C)O3)c1` [Compound 122, (10R)-6-(2,6-Dimethylphenyl)-7-(3-methoxyphenyl)-10-methyl-2,2-dioxo-9-oxa-2λ^6-thia-3,5,12,19-tetrazatricyclo[12.3.1.14,8]nonadeca-1(18),4(19),5,7,14,16-hexaen-13-one], the “Ent. B Max Activity” value is listed as “+++ (+++ is >60%)” and the EC50 was less than 1000 nM.
Consider `Cc1cccc(C)c1-c1nc2nc(c1-c1cccnc1)OC[C@@H](C)NC(=O)c1cccc(c1)S(=O)(=O)N2` [Compound 143], for which the “Ent. B Max Activity” value is “+ (+ is <30%)”.
As to `COc1c2nc(nc1-c1c(C)cccc1C)NS(=O)(=O)c1cccc(c1)C(=O)N(C1CC3(CC3)C1)[C@H](CC(C)C)CO2` [Compound 179], the “Ent. B Max Activity” value is recorded as “+++ (+++ is >60%)” and the EC50 is less than 1000 nM.
The corresponding values for `COC1CC(N2C(=O)c3cccc(c3)S(=O)(=O)Nc3nc(c(C)c(-c4c(C)cccc4C)n3)OC[C@H]2CC(C)C)C1` (stereo in doubt) [Compound 71] are “+++ (+++ is >60%)” and less than 1000 nM.
On to `Cc1cccc(C)c1-c1nc2nc(c1C)OC[C@@H](CC(C)C)N([C@H]1C[C@@]3(C[C@H](NC(=O)OC(C)C)C3)C1)C(=O)c1cccc(c1)S(=O)(=O)N2` (single isomer, unassigned) [Compound 52], for which the “Ent. B Max Activity” value was “+++ (+++ is >60%)” and the concentration for a half-maximal effect (EC50) was less than 1000 nM.
On the same counts, the results for `Cc1cccc(C)c1-c1nc2nc(c1-c1ccccn1)O[C@H](C)CNC(=O)c1cccc(c1)S(=O)(=O)N2` [Compound 154] are “+ (+ is <30%)” and 3000 to 30000 nM.
Take `Cc1cccc(C)c1-c1nc2nc(c1C(=O)O)OC[C@@H](CC(C)C)N(C1CC3(CC3)C1)C(=O)c1cccc(c1)S(=O)(=O)N2` [Compound 168, (11R)-6-(2,6-Dimethylphenyl)-11-isobutyl-2,2,13-trioxo-12-spiro[2.3]hexan-5-yl-9-oxa-2λ^6-thia-3,5,12,19-tetrazatricyclo[12.3.1.14,8]nonadeca-1(18),4(19),5,7,14,16-hexaene-7-carboxylic acid]: the “Ent. B Max Activity” value is on record as “+ (+ is <30%)”.
